In PubChem BioAssay (NCI):
“And” between values parts separate entries of the source, which are not always exact repeats. Equal entries are not always repeated.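 Test compounds were applied to cells in 96-well plates for 48 hours at 5 doses. Here, GI50 denotes the concentration required for 50% inhibition of growth. TGI is the concentration that stops growth completely.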

Key:
Test in all cases: inhibition of tumour cell growth, NCI panel, 48 h
COLO 205 colon = tested on: COLO 205 colon
HCT-15 colon = tested on: HCT-15 colon
HOP-92 NSCLC = tested on: HOP-92 NSCLC
HS 578T breast = tested on: HS 578T breast
MALME-3M melanoma = tested on: MALME-3M melanoma
NCI-H226 lung = tested on: NCI-H226 lung
OVCAR-3 ovarian = tested on: OVCAR-3 ovarian
RXF 393 renal = tested on: RXF 393 renal
SW-620 colon = tested on: SW-620 colon
UACC-62 melanoma = tested on: UACC-62 melanoma

SMILES	GI50 (COLO 205 colon)	TGI (COLO 205 colon)	GI50 (HCT-15 colon)	TGI (HCT-15 colon)	GI50 (HOP-92 NSCLC)	TGI (HOP-92 NSCLC)	GI50 (HS 578T breast)	TGI (HS 578T breast)	GI50 (MALME-3M melanoma)	TGI (MALME-3M melanoma)	GI50 (NCI-H226 lung)	TGI (NCI-H226 lung)	GI50 (OVCAR-3 ovarian)	TGI (OVCAR-3 ovarian)	GI50 (RXF 393 renal)	TGI (RXF 393 renal)	GI50 (SW-620 colon)	TGI (SW-620 colon)	GI50 (UACC-62 melanoma)	TGI (UACC-62 melanoma)
O=C(Cn1c(C(=O)c2ccc(Cl)cc2)nc(-c2ccc(Cl)cc2)c1-c1ccc(Cl)cc1)c1ccccc1	> 100 µM	> 100 µM	> 100 µM	> 100 µM	12.9 µM	> 100 µM	> 100 µM	> 100 µM	> 100 µM	> 100 µM	> 100 µM	> 100 µM	> 100 µM	> 100 µM	> 100 µM	> 100 µM	> 100 µM	> 100 µM	> 100 µM	> 100 µM
N#CC(C#N)=NNc1ccc2cn[nH]c2c1		> 100 µM		> 100 µM		> 100 µM		> 100 µM		69.5 µM		> 100 µM		76.1 µM		55.4 µM		> 100 µM		> 100 µM
CC1CCC2C(C)C(=O)OC3OC4(C)CCC1C32OO4 (configuration not stated)	> 100 µM	> 100 µM		> 100 µM	> 100 µM	> 100 µM	> 100 µM	> 100 µM		> 100 µM	> 100 µM	> 100 µM		> 100 µM		> 100 µM	> 100 µM	> 100 µM	> 100 µM	> 100 µM
O=C([O][Hg][c]1ccccc1)c1ccccc1	1.89 µM	3.35 µM	0.437 µM	1.79 µM	1.35 µM	2.72 µM	1.1 µM	5.87 µM	1.77 µM	3.39 µM	2.41 µM	6.18 µM	0.298 µM	0.843 µM	1.24 µM	2.56 µM	0.943 µM	2.63 µM	1.55 µM	4.18 µM
N#CC1C[C@@H]2CC3(CCC2CN1C(=O)c1ccccc1)OCCO3 (some centres not stated)		> 100 µM		> 100 µM		> 100 µM	> 100 µM	> 100 µM		> 100 µM	> 100 µM	> 100 µM		> 100 µM		> 100 µM		> 100 µM		> 100 µM
Fc1cc(F)c(F)c(S)c1F		> 100 µM		> 100 µM		> 100 µM		> 100 µM		> 100 µM		> 100 µM		> 100 µM		54.8 µM		> 100 µM		> 100 µM
Cc1ccccc1C1=C(c2cn(C)c3ccccc23)C(=O)NC1=O	9.01 µM	> 25 µM	10.7 µM	> 25 µM	> 25 µM	> 25 µM	10 µM	> 25 µM	23.9 µM	> 25 µM	11.6 µM	> 25 µM	10.8 µM	> 25 µM	7.02 µM	> 25 µM	12.1 µM	> 25 µM	> 20.5 µM	> 25 µM
CCc1ccccc1NC(=O)C(C#N)C1=C(Cl)C(=O)c2ccccc2C1=O (configuration not stated)		31.1 µM		28.7 µM		> 100 µM		60.6 µM		19.5 µM		30.4 µM		> 100 µM		43.1 µM		44 µM		31.2 µM
Cc1ccc(-c2nc3nc(-c4ccc(F)cc4)nc(N4CCNCC4)c3o2)cc1	2.1 µM	4.64 µM	1.67 µM	3.38 µM	4.5 µM	22.6 µM	2.06 µM	5.12 µM	6.94 µM	19.6 µM	10.6 µM	26.7 µM	1.86 µM	3.5 µM	10.7 µM	23.2 µM	1.76 µM	3.61 µM	15.4 µM	29.9 µM
CC1=C/C=C/C(=O)O[C@@H]([C@H](C)[C@H](O)[C@@H](C)NC(=O)C(C)C)[C@H](C)/C=C/C(C)=C/[C@H]2C=CCC[C@@]2(C)\C=C\1	0.322 µM and 0.189 µM	7.33 µM	0.231 µM and 0.275 µM	9.15 µM	0.059 µM and 0.0545 µM	6.5 µM	6.73 µM and 1.9 µM	> 42.3 µM	2.01 µM and 1.71 µM	8.4 µM	2.48 µM and 0.582 µM	10 µM	2.77 µM and 1.77 µM	9.33 µM		8.69 µM	0.705 µM and 0.303 µM	8.9 µM	0.418 µM and 0.62 µM	8.98 µM
C[C@H](c1ccc(F)cc1CCCC(=O)O)N(c1cc(F)ccc1F)S(=O)(=O)c1ccc(Cl)cc1	33.7 µM	> 92.9 µM	22.3 µM	74.7 µM	17.9 µM	> 82.5 µM	20 µM	> 85 µM	23.5 µM	93.8 µM	31 µM	> 100 µM	19.6 µM	44 µM	21 µM	> 79.7 µM	34.6 µM	> 100 µM	14.2 µM	39.2 µM
ClCCCSSCCCCl		> 72.5 µM		57.7 µM		> 72.8 µM		64.9 µM		> 100 µM		> 100 µM		97.1 µM		> 100 µM		> 100 µM		> 100 µM
CS(=O)(=O)N1CCC(n2c(=O)c(Oc3ccc(F)cc3F)cc3cnc(NC4CCOCC4)nc32)CC1	> 25 µM	> 25 µM	> 25 µM	> 25 µM	> 25 µM	> 25 µM	> 11.6 µM	> 25 µM	> 25 µM	> 25 µM	> 22.5 µM	> 25 µM	> 25 µM	> 25 µM	6.88 µM	> 25 µM	> 25 µM	> 25 µM	> 25 µM	> 25 µM
COc1cc2c(NCCCCCO)ncnc2c(OC)c1OC		> 100 µM		> 100 µM		> 100 µM		> 100 µM		> 100 µM		> 100 µM		> 100 µM		> 100 µM		> 100 µM		> 100 µM
CN1CCN(C(=O)[C@@]2(C)CC[C@]3(C)CC[C@]4(C)C(=CC[C@@H]5[C@@]6(C)CCC(=O)NC(C)(C)[C@@H]6CC[C@]54C)[C@@H]3C2)CC1	1.54 µM	3.18 µM	1.2 µM	2.96 µM	1.05 µM	3.89 µM	2.06 µM	6.78 µM	1.45 µM	2.82 µM	4.14 µM	21.4 µM	2.01 µM	4.7 µM	1.06 µM	2.52 µM	1.87 µM	3.93 µM	1.55 µM	3.03 µM
COc1cc2c3c(n(CCCN4CCNCC4)c(=O)c2cc1OC)-c1cc2c(cc1C3=O)OCO2	3.06 µM	14 µM	0.296 µM	5.14 µM	0.041 µM	1.28 µM	1.26 µM	16.2 µM	2.55 µM	12.2 µM	0.127 µM	3.71 µM	1.22 µM	4.35 µM	0.811 µM	4.89 µM	0.0613 µM	6.32 µM	0.997 µM	7.61 µM
CCCCCCC1N=C(N)N=C(N)N1c1cccc(Cl)c1 (configuration not stated)	1.44 µM	18.4 µM	21.6 µM	> 100 µM	0.491 µM	5.94 µM	0.871 µM	9.22 µM	0.765 µM	15.6 µM	1.75 µM	24.5 µM	0.863 µM	10.5 µM	3.44 µM	15.7 µM	0.188 µM	15.9 µM	0.527 µM	12.3 µM
CNS(=O)(=O)OCC1OC(n2cnc3cncnc32)C(O)C1O (configuration not stated)	> 100 µM	> 100 µM	> 100 µM	> 100 µM	> 100 µM	> 100 µM	> 100 µM	> 100 µM	> 100 µM	> 100 µM	> 100 µM	> 100 µM	> 100 µM	> 100 µM	> 100 µM	> 100 µM	> 100 µM	> 100 µM	> 100 µM	> 100 µM
Cc1cc(Cl)nc2ccc(Cc3ccc4nc(Cl)cc(C)c4c3)cc12		> 100 µM		> 100 µM		> 100 µM		> 100 µM		> 100 µM		> 100 µM		> 100 µM		27.6 µM		> 100 µM		> 100 µM
NC(=O)c1cccc2c(N[C@H](CN3CCC3)c3ccc(Cl)c(C(F)(F)F)c3)ncnc12	0.837 µM	2.66 µM	0.947 µM	10.7 µM	0.14 µM	2.27 µM	0.191 µM	2.65 µM	0.399 µM	1.85 µM	1.99 µM	16.2 µM	3.3 µM	16.2 µM	0.141 µM	1.4 µM	3.43 µM	16.3 µM	1.13 µM	8.62 µM
Oc1c(C(Nc2ccccn2)c2cccc(Oc3ccccc3)c2)ccc2cccnc12 (configuration not stated)	0.492 µM	14.7 µM	0.331 µM	> 100 µM	0.522 µM	23.7 µM	0.74 µM	> 100 µM	0.806 µM	19.7 µM	1.36 µM	9.32 µM	0.56 µM	13.4 µM	1.32 µM	22.1 µM	0.422 µM	20.7 µM	0.31 µM	1.29 µM
Oc1cc(N2CC2)c(O)cc1N1CC1	1.02 µM	2.21 µM	0.727 µM	10.4 µM	2.33 µM	7.9 µM	2.33 µM	> 22.9 µM	0.217 µM	0.55 µM	1.63 µM	4.59 µM	0.839 µM	4.46 µM	0.358 µM	1.21 µM	0.372 µM	7.37 µM	0.918 µM	2.91 µM
CNC(=O)c1nn(C)c2c1C(C)(C)Cc1cnc(Nc3cccc(N4CCN(C)CC4)c3)nc1-2	0.239 µM	1.59 µM	0.186 µM	> 40.7 µM	0.164 µM	1.8 µM	0.204 µM	2.46 µM	0.223 µM	5.59 µM	0.237 µM	9.96 µM	0.505 µM	13.4 µM	0.147 µM	1.38 µM	0.287 µM	22.4 µM	0.369 µM	11.6 µM
Cn1cc(C2=C(c3c4n(c5ccccc35)CCNC4)C(=O)NC2=O)c2ccccc21	6.66 µM	> 21.8 µM	5.71 µM	> 25 µM	11.5 µM	> 25 µM	4.14 µM	> 20.5 µM	> 11.5 µM	> 24.1 µM	13.8 µM	> 25 µM	5.42 µM	> 21.7 µM	3.73 µM	14.1 µM	6.92 µM	> 25 µM	7.63 µM	> 25 µM
CC(=O)OCC12CN(C#N)C3C4COC(CC41)C1(C(=O)N(C)c4ccccc41)C32 (configuration not stated)		35.8 µM		35.5 µM		52.4 µM		55.9 µM		54.1 µM		49.5 µM		14.7 µM		38.3 µM		59.6 µM		52.2 µM
CC(c1cc(Cl)ccc1O)c1cc(Cl)ccc1O	17.6 µM	33.5 µM	4.54 µM	16.6 µM	1.71 µM	5.35 µM	2.74 µM	7.19 µM	4.61 µM	22.7 µM	12 µM	43.5 µM	3.62 µM	13 µM	3.42 µM	9.7 µM	3.7 µM	13.3 µM	3.58 µM	15 µM
Cc1ccc(F)c(NC(=O)Nc2ccc(-c3cccc4[nH]nc(N)c34)cc2)c1	2.21 µM and 2.27 µM	4.32 µM and 4.9 µM	3.21 µM and 3.11 µM	11.2 µM and > 10 µM	3.67 µM and 3.17 µM	14.4 µM and 8.25 µM	2.5 µM and 2.91 µM	12.6 µM and > 10 µM	4.24 µM and 2.64 µM	16.4 µM and 7.36 µM	5.88 µM and 6.06 µM	20.5 µM and > 10 µM	2.85 µM and 3.15 µM	7.76 µM and > 10 µM	1.96 µM and 1.92 µM	4.34 µM and 4.96 µM	2.4 µM and 2.58 µM	6.73 µM and 9.58 µM	3.27 µM and 4.2 µM	11.7 µM and > 10 µM
COC(=O)c1ccc2nc(-c3cc4ccccc4n3C)n(CCCCOc3cc4c(cc3OC)C(=O)N3CCC[C@H]3C=N4)c2c1	0.575 µM	1.46 µM	2.41 µM	8.94 µM	0.347 µM	2.77 µM	0.276 µM	1.42 µM	1.07 µM	2.83 µM	1.23 µM	8.04 µM	0.214 µM	0.51 µM	0.687 µM	2.27 µM	0.389 µM	1.75 µM	0.211 µM	0.625 µM
